Values after ≈ are worked out from the molar mass of the structure shown. Where two headings read alike, the source gives them in different places.
What was measured:
HPV16 PVs [1] = assay: Virus inhibition test (in vitro), SEAP activity of 293TT cells infected with HPV pseudovirion; assay type: cell-based; settings: Human papillomavirus 16, read-out: inhibitory activity from HPV16 PVs
Description: Prior to in vitro antiviral assay, 5×10^3 of 293TT cell was seeded on 96-well plate and incubated at 37° C. for 16 hours in 5% CO2 atmosphere. The culture media was removed and each extract was diluted to the concentration of 100 μg/ml or 50 μg/ml to distribute into each cell at the dose of 100 μl/cell. After treating with the extract for 16 hours, the culture media was removed and the cell was washed with PBS twice. The cell was infected by 106RLU/ml of HPV PVs at the dose of 100 μl/cell and incubated for 48 hours at 37° C. in 5% CO2 atmosphere. To determine the viral activity, the supernatant of the cell culture was used for determine the activity of secreted alkaline phosphatase (SEAP) using by Great EscAPE™ SEAP Chemiluminescence Kit (631738, Clontech, CA, USA). To determine the SEAP activity, relative light units (RLU) value was obtained using by Luminescence coulter (Micro beta triLux 1450, PerkinElmer, CT, USA) and the RLU values of the cell treated with the extract and untreated with the extract, were compared with each other. The decrease of SEAP activity was regarded as the inhibition effect against HPV PVs.
To determine the inhibitory effect on luciferase-comprising HPV virus contagion of the test samples prepared in Examples, following test was performed according to the method disclosed in the literature (Shaneyfelt et al., Virology Journal, 3:68, 2006, 1-11; Roden et al., J. Virol., 70, 1996, 5875-5883; Unckell et al., J. Virol., 71, 1997, 2934-2939; Touze et al., Nucleic Acids Research, 26, 1998, 1317-1323; Selinka et al., J. Virol., 77, 2003, 12961-12967; Klasse et al., Journal of General Virology, 83, 2002, 2091-2108)
5×10^3293TT cell was seeded on 96-well plate and incubate for 16 hours. 50 μg of test sample was mixed with the culture media in the concentration of 100 ug/ml and incubated for 16 hours. The media was washed with 100 μl of PBS twice and the cell was infected with 10^6RLU/ml of HPV pseudovirion at the dose of 100 μl/cell to incubate at 37° C., for 48 hours in 5% CO2 atmosphere.
5× lysis buffer in Great EscAPE™ SEAP Chemiluminescence Kit (631738, Clontech, CA, USA) was made to 1× and both of 45 μl of 1× lysis buffer and 15 μl of cell culture medium were added to 96-well plate (3912, Costar, NY, USA). 60 μl of the substrate in Great EscAPE™ SEAP Chemiluminescence kit was added thereto and the relative light units (RLU) value was obtained using by Luminescence coulter (Micro beta triLux 1450, PerkinElmer, CT, USA). The RLU values of the cell treated with the extract and untreated with the extract, were compared with each other and the decrease of SEAP activity was regarded as the inhibition effect against HPV PVs.

[2] = test system: MES-SA/DX5 (multidrug resistant carcinoma subline of MES-SA); assay: SRB cytotoxicity test, MES-SA/DX5; assay type: cell-based, human; settings: Homo sapiens, MES-SA/Dx5, 48 h
Description: (§1) To determine the cytotoxicity against human tumor cell line of the test samples prepared in Examples, following sulforhodamin B (SRB) bioassy test was performed according to the method disclosed in the literature (Skehan, P., et al., J. Natl. Cancer Inst., 82, 1990, 1107-1112).
(§2) Various human tumor cell lines, i.e., A-549 (human adenocarcinoma of lung, NCI), SK-OV-3 (human ovarian tumor, NCI), SK-MEL-2 (human malignant melanoma, NCI), HCT15 (human colon adenocarcinoma, NCI), MES-SA (human uterine carcinoma, NCI) and MES-SA/DX5 (multidrug resistant carcinoma subline of MES-SA, NCI) were used in the test.
(§3) The subcultured cell lines were detached from the surface of wall using by trypsin-EDTA solution and adjusted to various concentration of cell lines, i.e., 5×10^3 cells/well (A-549, HCT15), 1×10^4 cells/well (SK-MEL-2), 5×10^3 cells/well (SK-OV-3) in 96-well flat bottom microplate. The inoculated cell lines were incubated in CO2 incubator (MCO-20AIC, SANYO Electric Co., LTd.) to be attached on the bottom of incubator and the culture media was removed with aspirator. 6 logarithmic concentrations of the diluted test samples were added to each well containing cell line at 100 μl/well in a three fold dilution manner and the cell was incubated for 48 hours. The culture media in each well was removed and 100μ of 10% trichloroacetic acid was added thereto to be left alone at 4° C. for 1 hour and to fix the cells to the bottom of the plates. […] The cell plates were shaked with titer plate shaker (KOMA Orbital Shaker KE011, KOMABIOTech) for 10 mins to exude the staining solution and to determine the absorbance at 520 nm using by microplate spectrophotometer (Sunrise, TECAN).

HCT15/CL02 = assay: SRB cytotoxicity test, HCT15/CL02; assay type: cell-based, human; settings: Homo sapiens, HCT-15; Table 4, 48 hours
Description: To determine the cytotoxicity against human tumor cell line of the test samples prepared in Examples, following sulforhodamin B (SRB) bioassy test was performed according to the method disclosed in the literature (Skehan, P., et al., J. Natl. […] The inoculated cell lines were incubated in CO2 incubator (MCO-20AIC, SANYO Electric Co., LTd.) to be attached on the bottom of incubator and the culture media was removed with aspirator. 6 logarithmic concentrations of the diluted test samples were added to each well containing cell line at 100 μl/well in a three fold dilution manner and the cell was incubated for 48 hours. […] The cell plates were shaked with titer plate shaker (KOMA Orbital Shaker KE011, KOMABIOTech) for 10 mins to exude the staining solution and to determine the absorbance at 520 nm using by microplate spectrophotometer (Sunrise, TECAN).

[3] = test system: HCT15 (human colon adenocarcinoma); assay: SRB cytotoxicity test, HCT15; assay type: cell-based; settings: Homo sapiens, HCT-15, 48 h, read-out: Cytotoxicity IC50, HCT15
Description: as §1, §2, §3

[4] = test system: MES-SA (human uterine carcinoma); assay: SRB cytotoxicity test, MES-SA; assay type: cell-based; settings: Homo sapiens, MES-SA, 48 h, read-out: Cytotoxicity IC50, MES-SA
Description: as §1, §2, §3

[5] = test system: SK-OV-3 (human ovarian tumor); assay: SRB cytotoxicity test, SK-OV-3; assay type: cell-based; settings: Homo sapiens, SK-OV-3; Table 3, 48 hours; read-out: Cytotoxicity IC50, SK-OV-3
Description: as §1, §2, §3

[6] = test system: A-549 (human adenocarcinoma of lung); assay: SRB cytotoxicity test, A-549; assay type: cell-based; settings: Homo sapiens, A549; Table 3, 48 hours; read-out: Cytotoxicity IC50, A-549
Description: as §1, §2, §3

[7] = test system: SK-MEL-2 (human malignant melanoma); assay: SRB cytotoxicity test, SK-MEL-2; assay type: cell-based; settings: Homo sapiens, SK-MEL-2; Table 3, 48 hours; read-out: Cytotoxicity IC50, SK-MEL-2
Description: as §1, §2, §3

HPV16 PVs [8] = assay: Virus inhibition test (in vitro), SEAP activity of 293TT cells infected with HPV pseudovirion; assay type: cell-based; settings: Human papillomavirus 16, read-out: inhibitory activity on HPV16 PVs
[9] = read-out: Cytotoxicity IC50, MES-SA/DX5

Structure (SMILES): C=C1CCC2[C@](C)(C(=O)O)CCC[C@]2(C)[C@H]1CC[C@H](C)CCO (stereo partly drawn) [compound (b), (13S)-15-hydroxylabd-8(17)-en-18-oic acid]
- inhibition at 50 µg/mL (HPV16 PVs [1]): 70 to 80%
- IC50 [2, 9]: 11.5 µg/mL (≈ 35.7 µM)
- IC50 (HCT15/CL02): 12.8 µg/mL (≈ 39.8 µM)
- IC50 ([3]; Table 4, 48 hours): 20.2 µg/mL (≈ 62.5 µM)
- IC50 ([4]; Table 4, 48 hours): 19.1 µg/mL (≈ 59.1 µM)

Structure (SMILES): CC(C)(O)c1ccc2c(c1)CC[C@H]1[C@](C)(C(=O)O)CCC[C@]21C [compound (k), 15-hydroxydehydroabietic acid]
- inhibition at 50 µg/mL (HPV16 PVs [1]): 70 to 80%
- IC50 [2, 9]: 91.9 µg/mL (≈ 290 µM)
- IC50 [5]: 142 µg/mL (≈ 448 µM)
- IC50 ([3]; Table 3, 48 hours): 98.2 µg/mL (≈ 310 µM)
- IC50 [6]: 109 µg/mL (≈ 345 µM)
- IC50 ([4]; Table 3, 48 hours): 90.7 µg/mL (≈ 286 µM)
- IC50 [7]: 88.8 µg/mL (≈ 281 µM)

Structure (SMILES): C=C[C@]1(C)C=C2CC[C@@H]3[C@](C)(CCC[C@@]3(C)C(=O)O)[C@H]2CC1 [compound (j), sandaracopimaric acid]
- inhibition at 50 µg/mL (HPV16 PVs [1]): 70 to 80%
- IC50 [2, 9]: 11.1 µg/mL (≈ 36.6 µM)
- IC50 [5]: 12.1 µg/mL (≈ 40.1 µM)
- IC50 ([3]; Table 3, 48 hours): 13.6 µg/mL (≈ 44.9 µM)
- IC50 [6]: 13.6 µg/mL (≈ 45.1 µM)
- IC50 ([4]; Table 3, 48 hours): 10.4 µg/mL (≈ 34.6 µM)
- IC50 [7]: 11.2 µg/mL (≈ 36.9 µM)
- inhibition at 5 µg/mL (HPV16 PVs [8]): ~50%

Structure (SMILES): C[C@@]1(C(=O)O)CCC[C@]2(C)c3ccc(O)cc3CCC12 (stereo partly shown) [compound (e), 13-hydroxy-8,11,13-podocarpatrien-18-oic acid]
- inhibition at 50 µg/mL (HPV16 PVs [1]): 70 to 80%
- IC50 [2, 9]: 25.8 µg/mL (≈ 94.2 µM)
- IC50 (HCT15/CL02): 26.4 µg/mL (≈ 96.1 µM)
- IC50 ([3]; Table 4, 48 hours): > 30 µg/mL
- IC50 ([4]; Table 4, 48 hours): > 30 µg/mL

Structure (SMILES): C=C1CCC2[C@](C)(C(=O)O)CCC[C@]2(C)[C@H]1/C=C/C(C)=O (stereo partly shown) [compound (d), 13-oxo-15,16-dinorlabda-8(17),11E-dien-19-oic acid]
- inhibition at 50 µg/mL (HPV16 PVs [1]): 70 to 80%
- IC50 ([2]; read-out: Cytotoxicity IC50, MES-SA/DX5, Table 4, 48 hours): > 30 µg/mL
- IC50 (HCT15/CL02): 27.6 µg/mL (≈ 95.2 µM)
- IC50 ([3]; Table 4, 48 hours): > 30 µg/mL
- IC50 ([4]; Table 4, 48 hours): > 30 µg/mL

Structure (SMILES): C=C[C@]1(C)CCC2[C@@]3(C)CCC[C@@](C)(CO)C3CC[C@@]2(C)O1 (single isomer, unassigned; ent-18) [compound (h), ent-18-hydrorxy-13-epimanoyl oxide]
- inhibition at 50 µg/mL (HPV16 PVs [1]): 70 to 80%
- IC50 [2, 9]: 9.54 µg/mL (≈ 31.1 µM)
- IC50 [5]: 12.7 µg/mL (≈ 41.4 µM)
- IC50 ([3]; Table 3, 48 hours): 10 µg/mL (≈ 32.8 µM)
- IC50 [6]: 13.3 µg/mL (≈ 43.5 µM)
- IC50 ([4]; Table 3, 48 hours): 8.17 µg/mL (≈ 26.7 µM)
- IC50 [7]: 11.3 µg/mL (≈ 36.7 µM)
